Patent publication US20060264460A1 (Wyeth, priority 2005, published 2006)

Molecular target: T1, human Cot/Tpl2 kinase (Homo sapiens, UniProt P41279)
T1 construct: human Cot/Tpl2 kinase construct encoding residues 30-398; 6His (N); made in house; host or cells: Sf9 insect cells, baculovirus system (BD Biosciences)
Experiment: Tpl2/Cot kinase assay: GST-MEK1 phosphorylation detected by ELISA (DELFIA Eu)
Assay type: biochemical
Outline: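 Substrate phosphorylation (GST-MEK1 Ser217/221) quantified by DELFIA europium ELISA, yielding IC50 values. Reaction: 1 h at 30° C, pH 7.2 MOPS buffer, 50 uM ATP, 35 nM GST-MEK1, 0.4 nM monomeric His-Tpl2 purified from Sf9 cells, compounds at 1% final DMSO; stopped with EDTA.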

[1] = 0.4 nM Tpl2, 35 nM GST-MEK1, 50 uM ATP, 1 h at 30° C.
[2] = Table 2, Tpl2/Cot kinase, GST-MEK1 substrate, 50 uM ATP
[3] = Tpl2/Cot kinase, GST-MEK1 substrate, 50 uM ATP
[4] = Tpl2/Cot kinase, GST-MEK1 substrate, 50 uM ATP, 1 h at 30° C., Table 2

T1 sequence (P41279 30-398): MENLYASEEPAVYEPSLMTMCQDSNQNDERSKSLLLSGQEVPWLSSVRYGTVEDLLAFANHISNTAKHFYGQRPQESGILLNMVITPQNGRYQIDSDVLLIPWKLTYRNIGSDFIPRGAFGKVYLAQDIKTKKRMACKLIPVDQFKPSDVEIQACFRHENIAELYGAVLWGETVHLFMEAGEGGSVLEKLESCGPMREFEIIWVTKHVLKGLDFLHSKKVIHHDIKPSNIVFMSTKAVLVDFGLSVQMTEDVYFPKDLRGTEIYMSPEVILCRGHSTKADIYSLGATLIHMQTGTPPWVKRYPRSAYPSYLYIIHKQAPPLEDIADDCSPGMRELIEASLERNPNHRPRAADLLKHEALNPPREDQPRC

SMILES	IC50 [1] [µM]	IC50 [2] [µM]	further results
CCc1nc(CNc2cc(Cl)c3ncc(C#N)c(Nc4ccc(F)c(Cl)c4)c3c2)c(C)[nH]1 [Example 190, 8-chloro-4-(3-chloro-4-fluorophenylamino)-6-((2-ethyl-5-methyl-1H-imidazol-4-yl)methylamino)quinoline-3-carbonitrile]	0.32		
N#Cc1cnc2c(Br)cc(NCc3cnc[nH]3)cc2c1NC1CCCC1 [Example 96, 6-((1H-imidazol-5-yl)methylamino)-8-bromo-4-(cyclopentylamino)quinoline-3-carbonitrile]	0.44		
N#Cc1cnc2c(C(F)(F)F)cc(NCc3cnc(N4CCOCC4)s3)cc2c1Nc1ccc(F)c(Cl)c1 [Example 244, 4-[(3-chloro-4-fluorophenyl)amino]-6-{[(2-morpholin-4-yl-1,3-thiazol-5-yl)methyl]amino}-8-(trifluoromethyl)quinoline-3-carbonitrile]	> 40		
N#Cc1cnc2c(O)cc(N)cc2c1Nc1ccc(F)c(Cl)c1 [Example 421]		10.6	
CC(Nc1ccc2ncc(C#N)c(Nc3ccc(F)c(Cl)c3)c2c1)c1ccccn1 (stereo not drawn) [Example 127, 4-(3-chloro-4-fluorophenylamino)-6-(1-(pyridin-2-yl)ethylamino)quinoline-3-carbonitrile]	0.064		
N#Cc1cnc2c(Br)cc(NCc3n[nH]c4c3CCCC4)cc2c1Nc1ccc(F)c(Cl)c1 [Example 448]		0.37	
N#Cc1cnc2c(Cl)cc(NCc3c(CCCO)ncn3COCc3ccccc3)cc2c1Nc1ccc(F)c(Cl)c1 [Example 198, 6-({[1-[(benzyloxy)methyl]-4-(3-hydroxypropyl)-1H-imidazol-5-yl]methyl}amino)-8-chloro-4-[(3-chloro-4-fluorophenyl)amino]quinoline-3-carbonitrile]	0.87		
CCN(Cc1cn(CC(=O)N(C)C)nn1)c1cc(Br)c2ncc(C#N)c(Nc3ccc(F)c(Cl)c3)c2c1 [Example 835]			IC50 [3]: 0.0091 µM
CNC(=O)CNc1ccc2ncc(C#N)c(Nc3ccc(F)c(Cl)c3)c2c1 [Example 108, 2-(4-(3-chloro-4-fluorophenylamino)-3-cyanoquinolin-6-ylamino)-N-methylacetamide]	0.55		
CN(C)C(=O)c1cc(N)cc2c(Nc3ccc(F)c(Cl)c3)c(C#N)cnc12 [Example 396]		6	
N#Cc1cnc2c(Cl)cc(NCc3cn(-c4ccnc(N5CCCCC5)n4)nn3)cc2c1Nc1ccc(F)c(Cl)c1 [Example 747]			IC50 [3]: 0.32 µM
CN(C)C(=O)c1cc(NCc2cnc[nH]2)cc2c(Nc3ccc(F)c(Cl)c3)c(C#N)cnc12 [Example 87, 6-((1H-imidazol-5-yl)methylamino)-4-(3-chloro-4-fluorophenylamino)-3-cyano-N,N-dimethylquinoline-8-carboxamide]	0.13		
N#Cc1cnc2c(Cl)cc(NCc3cn(C4CCN(CC5CC5)CC4)nn3)cc2c1Nc1ccc(F)c(Cl)c1 [Example 1027]			IC50 [4]: 0.0079 µM
N#Cc1cnc2ccc(NCc3ccc(=O)n(CCN4CCOCC4)c3)cc2c1Nc1ccc(F)c(F)c1 [Example 345]		1.7	
N#Cc1cnc2c(Br)cc(NCc3cn(CCN4CCOCC4)nn3)cc2c1Nc1ccc(F)c(Cl)c1 [Example 297, 8-Bromo-4-(3-chloro-4-fluoro-phenylamino)-6-{[1-(2-morpholin-4-yl-ethyl)-1H-[1,2,3]triazol-4-ylmethyl]-amino}-quinoline-3-carbonitrile]	0.029		
CN(C)C(=O)CCn1cc(CNc2cc(Cl)c3ncc(C#N)c(Nc4ccc(F)c(Cl)c4)c3c2)nn1 [Example 789]			IC50 [3]: 0.01 µM
CN(CCn1cc(CN(Cc2cn(CCN(C)C(=O)OC(C)(C)C)nn2)c2cc(Br)c3ncc(C#N)c(Nc4ccc(F)c(Cl)c4)c3c2)nn1)C(=O)OC(C)(C)C [Example 677]			IC50 [3]: 4.7 µM
CC(=O)N1CCC(CNc2cc(Cl)c3ncc(C#N)c(Nc4ccc(F)c(Cl)c4)c3c2)CC1 [Example 866]			IC50 [3]: 0.26 µM
CON(C)C(=O)CNc1cc(Cl)c2ncc(C#N)c(Nc3ccc(F)c(Cl)c3)c2c1 [Example 471]		> 40	
CCNC1CCC(n2cc(CNc3cc(Cl)c4ncc(C#N)c(Nc5ccc(F)c(Cl)c5)c4c3)nn2)CC1 (stereo not drawn) [Example 1035]			IC50 [4]: 0.036 µM
COc1ncccc1CNc1ccc2ncc(C#N)c(Nc3ccc(F)c(Cl)c3)c2c1 [Example 51, 4-(3-Chloro-4-fluoro-phenylamino)-6-[(2-methoxy-pyridin-3-ylmethyl)-amino]-quinoline-3-carbonitrile]	0.11		
CN1CCC(Nc2ccc3ncc(C#N)c(Nc4ccc(F)c(Cl)c4)c3c2)CC1 [Example 364]		> 10	
CC(C)(C)OC(=O)N1CCC(n2cc(CNc3cc(Br)c4ncc(C#N)c(Nc5ccc(F)c(Cl)c5)c4c3)nn2)CC1 [Example 493]		0.25	
N#Cc1cnc2c(Cl)cc(NC[C@H]3C[C@H](OCc4ccccc4)CO3)cc2c1Nc1ccc(F)c(Cl)c1 [Example 935]			IC50 [4]: > 3 µM

SMILES	IC50 [1] [µM]	IC50 [2] [µM]	further results
CCN1CCC(O)(c2cncc(CNc3cc(Cl)c4ncc(C#N)c(Nc5ccc(F)c(Cl)c5)c4c3)c2)CC1 [Example 1034]			IC50 [4]: 0.4 µM
CCN1CCC(Nc2ccc3ncc(C#N)c(Nc4ccc(F)c(Cl)c4)c3c2)C(C)C1 (stereo not drawn) [Example 659]			IC50 [3]: > 40 µM
N#Cc1cnc2ccc(NC[C@H]3CCCN3)cc2c1Nc1ccc(F)c(Cl)c1 [Example 46, 4-(3-Chloro-4-fluoro-phenylamino)-6-[(D-pyrrolidin-2-ylmethyl)-amino]-quinoline-3-carbonitrile]	30		
N#Cc1cnc2ccc(NCc3cc[nH]n3)cc2c1Nc1ccc(F)c(Cl)c1 [Example 382]		0.074	
CN1CCC(CCn2cc(CNc3cc(Cl)c4ncc(C#N)c(Nc5ccc(F)c(Cl)c5)c4c3)nn2)CC1 [Example 521]		0.038	
CN(C)CCC(c1cccnc1)n1cc(CNc2cc(Cl)c3ncc(C#N)c(Nc4ccc(F)c(Cl)c4)c3c2)nn1 (stereo not drawn) [Example 759]			IC50 [3]: 0.036 µM
CC(C)(C)OC(=O)N1CCN(CCCn2cc(CNc3cc(Br)c4ncc(C#N)c(Nc5ccc(F)c(Cl)c5)c4c3)nn2)CC1 [Example 764]			IC50 [3]: 1.3 µM
Cc1[nH]cnc1CNc1ccc2ncc(C#N)c(Nc3ccc(F)c(Cl)c3)c2c1 [Example 15, 4-(3-Chloro-4-fluoro-phenylamino)-6-[(5-methyl-3H-imidazol-4-ylmethyl)-amino]-quinoline-3-carbonitrile]	0.015		
N#Cc1cnc2ccc(NCCN3CCOCC3)cc2c1Nc1ccc(Oc2ccccc2)cc1 [Example 338]		0.15	
COCCCc1nc[nH]c1CNc1cc(Br)c2ncc(C#N)c(Nc3ccc(F)c(Cl)c3)c2c1 [Example 507]		0.0621	
N#Cc1cnc2c(Cl)cc(NCc3cn(C4CCN(C5CC5)CC4)nn3)cc2c1Nc1ccc(F)c(Cl)c1 [Example 1003]			IC50 [4]: 0.017 µM
CC(C)(C)Nc1c(C#N)cnc2c(Br)cc(NCc3cccc[n+]3[O-])cc12 [Example 104, 8-bromo-4-(tert-butylamino)-6-(1-oxypyridin-2-ylmethylamino)quinoline-3-carbonitrile]	1.5		
N#Cc1cnc2ccc(NCc3cccc(Br)c3)cc2c1Nc1ccc(F)c(Cl)c1 [Example 147, 6-(3-bromobenzylamino)-4-(3-chloro-4-fluorophenylamino)quinoline-3-carbonitrile]	1.6		
N#Cc1cnc2c(Cl)cc(NCc3cncc(Br)c3)cc2c1Nc1ccc(F)c(Cl)c1 [Example 1047]			IC50 [4]: 0.47 µM
CC(=O)N1CCC[C@@H]1Cn1cc(CNc2cc(Cl)c3ncc(C#N)c(Nc4ccc(F)c(Cl)c4)c3c2)nn1 [Example 898]			IC50 [3]: 0.0002 µM
CCOCCOc1ccc2c(c1)CN(c1ccc3ncc(C#N)c(Nc4ccc(F)c(Cl)c4)c3c1)C2=N [Example 60]	> 40		
N#Cc1cnc2ccc(NCc3ccc(-n4ccnc4)cc3)cc2c1Nc1ccc(F)c(Cl)c1 [Example 12, 4-(3-Chloro-4-fluoro-phenylamino)-6-(4-imidazol-1-yl-benzylamino)-quinoline-3-carbonitrile]	1.3		
N#Cc1cnc2c(Br)cc(NCc3cn(CCCO)nn3)cc2c1Nc1ccc(F)c(Cl)c1 [Example 523]		0.018	
COC(=O)c1cccc(CNc2ccc3ncc(C#N)c(Nc4ccc(F)c(Cl)c4)c3c2)c1 [Example 397]		0.32	
N#Cc1cnc2c(C(F)(F)F)cc(NCc3cnc[nH]3)cc2c1Nc1ccc(F)c(Cl)c1 [Example 229, 4-[(3-chloro-4-fluorophenyl)amino]-6-[(1H-imidazol-5-ylmethyl)amino]-8-(trifluoromethyl)quinoline-3-carbonitrile]	0.19		
CC(C)C(=O)Nc1cc(NCc2cccnc2)cc2c(Nc3cccc(Cl)c3)c(C#N)cnc12 [Example 81, N-(4-(3-chlorophenylamino)-3-cyano-6-(pyridin-3-ylmethylamino)quinolin-8-yl)isobutyramide]	> 40		
N#Cc1cnc2c(Cl)cc(NCc3cn(Cc4ccccn4)cn3)cc2c1Nc1ccc(F)c(Cl)c1 [Example 786]			IC50 [3]: 0.041 µM
N#Cc1cnc2c(Br)cc(NCc3cn(CCS(=O)(=O)C4CCCC4)nn3)cc2c1Nc1ccc(F)c(Cl)c1 [Example 524]		0.053	
N#Cc1cnc2c(Cl)cc(NCc3cccnc3)cc2c1Nc1ccc(F)c(Cl)c1 [Example 178, 8-chloro-4-(3-chloro-4-fluorophenylamino)-6-(pyridin-3-ylmethylamino)quinoline-3-carbonitrile]	0.016		

Second part, led by results:

IC50 [1] [µM]	IC50 [2] [µM]	SMILES	further results
	0.016	N#Cc1cnc2c(Cl)cc(NCc3cn(-c4cc[n+]([O-])cc4)nn3)cc2c1Nc1ccc(F)c(Cl)c1 [Example 576]	
	0.034	CN1CCCC1CCn1cnc(CNc2cc(Br)c3ncc(C#N)c(Nc4ccc(F)c(Cl)c4)c3c2)c1 (stereo not drawn) [Example 548]	
	0.0011	N#Cc1cnc2c(Cl)cc(NCc3cn(CCCN4CCCCC4)nn3)cc2c1Nc1ccc(F)c(Cl)c1 [Example 539]	
